In brackets after ≈: the same amount, converted by molar mass.

The series can be described thus: solubility in buffers. The conditions noted are these: for water solubility: room temperature, 72 h. The format is physicochemical. Here is the method:
Compound UAMC-3203 was synthetized in the laboratory of Medicinal Chemistry at the University of Antwerp, as reported by Devisscher L. et al.. Solubility of UAMC-3203 was determined in 0.1 M citrate buffer (pH 5 and pH 6) and phosphate-buffered saline (PBS, Gibco, Life Technologies Limited, Paisley, UK) at pH 7.4. Excess of UAMC-3203 (10–20 mg) was added to 500 µL of buffer in glass vials that were kept at room temperature and mixed (150 rpm) for 72 h. The pH of the solutions was measured daily with calibrated pH meter (Orion Research Incorporated, Boston, MA, USA) and adjusted if needed (with 0.1 N sodium hydroxide or 0.1 N hydrochloric acid). After 72 h, samples were withdrawn and centrifuged at 13,000 rpm for 15 min. The supernatant was collected and analyzed by high-pressure liquid chromatography (HPLC) for UAMC-3203 concentration.
The quantitation of UAMC-3203 was performed with […] reverse-phase HPLC system consisting of a degasser (G1379B), multi-sampler (G1367D), a binary pump (G1312B), a thermostat (G1316B), and a diode array detector (DAD) detector (G1315C). A Zorbax Eclipse XDB-C18 (4.6 × 50 mm, 4 μm; Agilent Technologies, Santa Clara, CA, USA) column was used for the analyses. The mobile phase was composed of 0.1% […] (Sigma-Aldrich, St. Louis, MO, USA) in Milli-Q-H2O and 0.1% […] in acetonitrile (LC-MS Chromasolv, Honeywell, Riedel-de Haen, Seelze, Germany) (65:35% v/v). Isocratic analysis was performed at a flow rate of 1 mL/min. The injection volume was 5 μL, and the detection wavelength was 240 nm.

As to `O=S(=O)(NCCN1CCNCC1)c1ccc(NC2CCCCC2)c(NCc2ccccc2)c1` [UAMC-3203], the “solubility at pH 6.0 and 7.4 relative to pH 5.0” value was “about 3.5 times”. Moreover, where the note is “pH 5.0, 0.1 M citrate buffer”, the water solubility was found to be 36.7 ± 5.7 µM (≈ 17.3 µg/mL). Where the note is “pH 6.0, 0.1 M citrate buffer”, this compound returned a water solubility of 127.9 ± 16.1 µM (≈ 60.3 µg/mL). The compound further returned a water solubility (pH 7.4, PBS) of 127.3 ± 17.3 µM (≈ 60 µg/mL).

The record behind these values is paper PMC9863691, “A Novel Ferroptosis Inhibitor UAMC-3203, a Potential Treatment for Corneal Epithelial Wound” (Pharmaceutics, 2022).
